Assays:
contact hypersensitivity = assay: Contact hypersensitivity model in mouse (atopic dermatitis model); type: in vivo; settings: po, 30 minutes before causal induction, 24 hours, read-out: Control % (intumescence of the pinna, untreated = 100); for response vs control in vivo at 20 mg/kg: 20 mg/Kg p.o.; for response vs control in vivo at 3 mg/kg: 3 mg/Kg p.o.
Protocol: [Contact hypersensitivity model in mouse (Atopic dermatisis model)]
Test was conducted by referring to the method as described in "HIFU (a Japanese journal of dermatology)" Vol. 35, Supplemental Issue No. 15, pp. 96-106, published on March 1993.
CBA/J strain mice of 6-8 week age were used as the test animals (6-8 mice in one group). The mouse was sensitized by coating 150 μl of 5% of picryl chloride [dissolved in a mixture of acetone with olive oil (1:4)] on the shaved portion of skin in the back of mouse. […] 24 Hours after the causal induction, the effect for inhibiting contact hypersensitivity performed by the test compounds were evaluated by referring to the action for inhibiting intumescence of the pinna as an indication. The test compound was orally administered 30 minutes before the causal induction.
The following compounds were used for the test.
1) Compounds of the Present Invention:
(Dosage: 20 mg/Kg p.o., which is 7-10 times larger amount of dosages for compounds of the present invention)
The value obtained from the sensitization test without administration of the test compound was referred to as 100, and by comparing with the values obtained from the sensitization test with administration of the test compound was referred to "% control" values.

late asthmatic response = assay: Model experiment of asthma in guinea pigs (inhibition of late asthmatic response); type: in vivo, guinea pig; settings: control 112 ± 17.8
Protocol: [Model experiment of asthma in guinea pigs. (Inhibition of late asthmatic response)]
Hartley strain female guinea pigs (SLC) having the body weight of about 350 g were used and 50 mg/Kg of cyclophosphamide (mfd. by Sigma Chemical Co.) was injected intraperitoneally. 2 Days after this pretreatment by injection, 1 mg of egg albumin (mfd. by Sigma Chemical Co.) and 100 mg of aluminum hydroxide (Wako Pure Chemical Industries Co., Ltd.) were injected intraperitoneally for sensitization. 3 Weeks after the sensitization, 10 μg of egg albumin and 100 mg of aluminum hydroxide were injected intraperitoneally for booster sensitization. 6 Weeks after the primary sensitization, asthma attach was induced by inhalation and exposure to egg albumin (4 mg/ml) by using a nebulizer (NE-U12: mfd. by Omron Corp.). The asthma reaction was determined by use of a body-plethysmography (using system developed by Uchida lecturer in internal department for respiratory organs at Tsukuba University; air-resist tube, respiratory amplifier and differential pressure transducer (mfd. by Nihon Koden); and osciloscope (mfd. by Iwasaki Tsushin)), so as to determine a […] of specific airway conductance (sGaw) under the condition without anesthesia. The sGaw value just before the administration of test comopound was measured and the value is referred to as 100. Test compound was suspended in 1% HPMC (hydroxymethylpropylcellulose mfd. by Shinetsu Chemical), and was administered orally 30 minutes before the exposure with the antigen. Then, sGaw value was measured in each points until 7 hours after the exposure with the antigen.

[1] = Toxicity of compound against the cell strain RAW 264.7 (MTT); type: cell-based; settings: mouse, raw 264.7 cells, 1 × 10^-6 M, read-out: Ratio of optical absorbance
Protocol: [Toxicity test (Toxicity of compound against the cell strain RAW 264.7)]
Test was conducted in accordance with the method as described in J. Immunol. Methods, Vol. 94, pp. 57-68, (1986). Cell strain RAW 264.7 derived from the macrophage of mouse was incubated similarly as in the method of Test Example 1(1). After that, MTT reagent (5 mg/ml) in 1/10 amount of the culture medium was added to the cells, and incubated for 4 hours. The supernatant of culture medium was taken off, then the cells were collected by using 1% SDS solution and the optical absorbance at 570-630 nm of the SDS solution was measured.

[2] = test system: formation of NO in cell strain RAW 264.7; assay: Activity for inhibiting the formation of NO (LPS-stimulated RAW 264.7 cells, Griess reagent); type: cell-based; settings: Mus musculus, RAW264.7, 1 × 10^-6 M, LPS 100 ng/ml, 24 hours, read-out: Ratio of formed amount of NO (reference culture medium = 100)
Protocol: [Evaluation test of activity for inhibiting the formation of NO]
Pharmacological tests of pyrimidine derivatives obtained in Examples 1, 12, 14, 19, 22, 24, 29 and 42 used as test compounds were conducted as follows.
Preparation of culture media and method of cell culture were conducted in accordance with those described in J. Biol. Chem., Vol. 269, No. 1, pp. 711-715, (1994), and determination of formed amount of NO was conducted in accordance with the method described in Anal. Biochem., Vol. 126, pp. 131-138, (1982), respectively.
(1) Cell Culture and Inducible Synthesis of NO in the Cells by Stimulation with Lipopolysaccharide (LPS)
Cell strain RAW 264.7 (ATCC) derived from the macrophage of mouse was placed on each one of the wells on a microplate having 24-wells so as to put the cells in an amount of 1×10^5 cells/U (well). The cells were incubated for 24 hours in a phenol red free-RPMI-1640 culture medium (mfd. by GIBCO) to which 10% of fetal bovine serum, 100 U/ml of penicillin (mfd. by Dainippon Pharmaceutical Co., Ltd.) and 100 μg/ml of streptomycin (mfd. by Dainippon Pharmaceutical Co., Ltd.) were added.
Next, the reference culture medium was prepared by adding 2 mM of L-arginine (mfd. by Wako Pure Chemical Industries, Ltd.), 10 μM/ml of tetrahydrobiopterin (mfd. by ALEXIS) and 100 ng/ml of lipopolysaccharide (LPS)(mfd. by Sigma Chemical Co.) to a phenol red free-RPMI-1640 culture medium. While, the reference culture medium without containing LPS was used as the blanc culture medium.
On the other hand, the test culture medium, containing the test compound was prepared by adding 0.2% of the test compounds dissolved in dimethyl sulfoxide (DMSO) to the reference culture medium to adjust the final concentration of the test compound to 1×10^-6 M.
Each one of the blank culture medium, reference culture medium and test culture medium containing the test compound was added, respectively to the well on the micro-plate where the above-mentioned cell strain RAW 264.7 was placed, and was incubated for 24 hours.
(2) Measurement of the Amount of Formed NO
Quantitative measurement of NO cannot be made directly, due to its unstability. Therefore, the amount of NO is measured indirectly, thus by forming nitrous acid ion (hereunder referred to as NO2^-) which is stable product derived from NO by use of Griess reagent [consisting of 1% of sulfanylamide and 0.1% of sulfuric acid solution containing 0.1% N-(1-naphthyl)ethylenediamine dihydrochloride], and measure the amount of NO2^-.
Into the supernatant of each one of the culture media was admixed with the same amount of Griess reagent respectively, and subjected to reaction at room temperature for 10 minutes, then the optical absorbance at 540 nm of the thus reacted culture medium was measured. While, the optical absorbance of sodium nitrite solution diluted with the culture medium was referred to as the standard value, and the amount of NO2^- formed in each one of these incubated culture media was measured. The amounts of NO2^- formed in the reference culture medium and the test culture medium were corrected by using the value of formed amount of NO2^- in the blanc culture medium.
On the basis of that the ratio of amounts of NO2^- formed in the reference culture medium and that of formed in the test culture medium is corresponding to the ratio of amount of NO formed in the reference culture medium and that of formed in the test culture medium. Thus the amount of NO2^- formed in the reference culture medium is referred to as the value of 100, and the value of amount of NO2^- formed in the test culture medium is referred to as amount of NO formed in the test culture medium.

Row | Structure (SMILES) | response vs control in vivo at 20 mg/kg (contact hypersensitivity) [%] | activity at 1 µM [2] [%] | other results
1 | Oc1cc(C2CC2)nc2c(-c3ccc(Sc4ccccc4)cc3)cnn12 [(1), 7-Hydroxy-5-cyclopropyl-3-(4-phenylthiophenyl)pyrazolo[1,5-a]pyrimidine] | 99 | – | –
2 | Cc1cc(O)n2ncc(-c3ccc(Sc4ccccc4)cc3)c2n1 [(2), 7-Hydroxy-5-methyl-3-(4-phenylthiophenyl)pyrazolo[1,5-a]pyrimidine] | 90 | – | –
3 | COCc1nn2c(O)ccnc2c1-c1ccc(Sc2ccccc2)cc1 [(3), 7-Hydroxy-2-methoxymethyl-3-(4-phenylthiophenyl)pyrazolo[1,5-a]pyrimidine] | 104 | – | –
4 | Oc1cc(CCl)nc2cc(-c3ccccc3)nn12 [(4), 7-Hydroxy-5-chloromethyl-2-phenylpyrazolo[1,5-a]pyrimidine] | 103 | – | –
5 | Oc1ccnc2c(-c3cccc(C(F)(F)F)c3)cnn12 [(5), 7-Hydroxy-3-(3-trifluoromethylphenyl)pyrazolo [1,5-a]pyrimidine] | 90.4 | – | –
6 | COc1cc(-c2c(-c3ccccn3)nn3c(O)cc(C)nc23)ccc1Sc1ccccc1 [(6), 7-Hydroxy-5-methyl-3-(3-methoxy-4-phenylthiophenyl)-2-(2-pyridyl)pyrazolo[1,5-a]pyrimidine] | 94.7 | – | –
7 | Oc1cc(CCl)nc2cc(-c3ccc(Sc4ccccc4)cc3)nn12 [(7), 7-Hydroxy-5-chloromethyl-2-(4-phenylthiophenyl)pyrazolo[1,5-a]pyrimidine] | 113 | – | –
8 | Oc1ccnc2c(-c3ccc(Sc4ccccc4)cc3)cnn12 [(8), 7-Hydroxy-3-(4-phenylthiophenyl)pyrazolo[1,5-a]pyrimidine] | 100 | – | AUC (4-7 hours) of sGaw reaction (late asthmatic response; 39 mg/Kg (so in the source) orally 30 minutes before antigen, 3 animals): 127.9 ± 45.4
9 | O=c1cc(COc2ccccc2)[nH]c2c(-c3ccc(Sc4ccccc4)cc3)cnn12 [Example 12, 4,7-dihydro-7-oxo-5-phenoxymethyl-3-(4-phenylthiophenyl)pyrazolo[1,5-a]pyrimidine] | – | 67 | viability at 1 µM [1]: 103%
10 | COCCOCc1cc(=O)n2ncc(-c3ccc(Sc4ccccc4)cc3)c2[nH]1 [Example 14, 4,7-dihydro-5-(2-methoxyethoxymethyl)-7-oxo-3-(4-phenylthiophenyl)pyrazolo[1,5-a]pyrimidine] | – | 64.4 | viability at 1 µM [1]: 94.2%
11 | CC(C)(C)OCCOCc1cc(=O)n2ncc(-c3ccc(Sc4ccccc4)cc3)c2[nH]1 [Example 15, 5-(2-t-butoxyethoxymethyl)-4,7-dihydro-7-oxo-3-(4-phenylthiophenyl)pyrazolo[1,5-a]pyrimidine] | – | – | response vs control in vivo at 3 mg/kg (contact hypersensitivity): 46.3%
12 | O=c1cc(C2CCCO2)[nH]c2c(-c3ccc(Sc4ccccc4)cc3)cnn12 (stereo not drawn) [Example 19, 4,7-dihydro-7-oxo-3-(4-phenylthiophenyl)-5-(tetrahydrofuran-2-yl)pyrazolo[1,5-a]pyrimidine] | – | 63.1 | response vs control in vivo at 3 mg/kg (contact hypersensitivity): 44.7%
13 | COCCc1cc(=O)n2ncc(-c3ccc(Sc4ccccc4)cc3)c2[nH]1 [Example 22, 4,7-dihydro-5-(2-methoxyethyl)-7-oxo-3-(4-phenylthiophenyl)pyrazolo[1,5-a]pyrimidine] | – | 60.3 | viability at 1 µM [1]: 101%
14 | COC(OC)c1cc(=O)n2ncc(-c3ccc(Sc4ccccc4)cc3)c2[nH]1 [Example 24, 4,7-dihydro-5-dimethoxymethyl-7-oxo-3-(4-phenylthiophenyl)pyrazolo[1,5-a]pyrimidine] | – | 67.3 | viability at 1 µM [1]: 108%
15 | CSCc1cc(=O)n2ncc(-c3ccc(Sc4ccccc4)cc3)c2[nH]1 [Example 29, 4,7-dihydro-5-methylthiomethyl-7-oxo-3-(4-phenylthiophenyl)pyrazolo[1,5-a]pyrimidine] | – | 52.2 | viability at 1 µM [1]: 89.7%
16 | COCc1cc(=O)n2nc(COC)c(-c3ccc(Sc4ccccc4)cc3)c2[nH]1 [Example 42, 2,5-bis(methoxymethyl)-4,7-dihydro-7-oxo-3-(4-phenylthiophenyl)pyrazolo[1,5-a]-pyrimidine] | – | 55.4 | –
17 | C[C@]12C=CC(=O)C=C1CC[C@@H]1[C@@H]2[C@@H](O)C[C@@]2(C)[C@H]1CC[C@]2(O)C(=O)CO [Prednizolone] | – | – | AUC (4-7 hours) of sGaw reaction (late asthmatic response; 30 mg/Kg orally 30 minutes before antigen, 8 animals): 15.6 ± 3.5

From patent US6197774A, “Pyrimidine derivative” (Otsuka Pharmaceutical Co., Ltd., priority 1997, dated 2001)
